Test results as given in paper PMC6136712, “Ex vivo drug sensitivity testing as a means for drug repurposing in esophageal adenocarcinoma” (PLoS ONE, 2018).
Where a SMILES comes first, the peptide text is derived from it. [ ]: non-standard residue; d: D form. ξ: configuration not given here. Aoe(9ξ) = N[C@@H](CCCCCC(=O)C1CO1)C(=O)O; dPip = O=C(O)[C@H]1CCCCN1

Columns and labels:
Format in all cases: cell-based, human
OE33 cells [1] = test: Epigenetic compound library screen (CellTiter-Glo, 72 h); details: OE33, 6μM; for cytotoxicity at 6 µM: Homo sapiens, read-out: % cell killing /control
Method: (§1) We tested a 163 compound epigenetic library that consists of inhibitors and activators of epigenetic modifying enzymes (writers, erasers and readers). All compounds were dissolved in 100% DMSO and tested in duplicate at a nominal test concentration of 6μM. Wells with assay buffer containing DMSO served as negative controls. 1000 exponentially growing cells were seeded per well in 384-well micro-titer plates and incubated in the presence of compounds in a humidified environment at 37°C and 5% CO2. After 72 hours of treatment, cell viability was assessed by measuring ATP levels via bioluminescence (CellTiter-Glo, Promega). […] Curve fitting and statistical analyses are performed in GraphPad prism.

EAC47 cells [2] = test: as above; details: EAC47, 6μM; for cytotoxicity at 6 µM: Homo sapiens, read-out: % cell killing /control; for cytotoxicity at 6 µM / % cell killing /control: 72 h
Method: as §1

Flo-1 cells [3] = test: as above; details: Flo-1, 6μM; for cytotoxicity at 6 µM: Homo sapiens, read-out: % cell killing /control
Method: as §1

[4] = test system: normal esophageal epithelium cell line EACN42; test: FDA library drug sensitivity testing (CellTiter-Glo, 72 h), normal control cells; design: key to DSS: modified drug sensitivity score (DSSmod) from dose-response curve fit; details: EACN42 normal esophageal cells, 72 h; for EC50: cell viability (ATP), max test concentration 10μM; for DSS: drug sensitivity score
Summary of the method: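 HPV E6-E7-immortalized normal human esophageal epithelial cells, 1000 per well, exposed 72 h at 37 °C to drugs in duplicate from 10μM top concentration across a 20,000-fold range. Viability by ATP bioluminescence; DMSO wells as negative control; curves scored with modified drug sensitivity score (DSSmod).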

EAC47 cells [5] = test: FDA library drug sensitivity testing (CellTiter-Glo, 72 h)
Summary of the method: (§2)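 1000 cells/well exposed 72 h at 37 °C to drugs in duplicate, top concentration 10μM over a 20,000-fold range; DMSO wells as negative controls. Viability by ATP bioluminescence (CellTiter-Glo). Curves scored with the modified drug sensitivity score (DSSmod/sDSSmod).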

EAC42 cells [6] = test: as above; details: for sDSSmod: sDSSmod = DSSmod (patient cells) - DSSmod (normal cells)
Summary of the method: as §2

EAC47 cells [7] = test: Clonogenic survival assay
Method: (§3) Clonogenic assays were performed as described previously. […] Colony formation was evaluated 14 days after seeding. All experiments were performed in triplicates and two biological replicates. Statistical analyses were performed in GraphPad prism.

EAC42 cells [8] = test: Clonogenic survival assay
Method: as §3

SK-GT2 cells = test: FDA library drug sensitivity testing (CellTiter-Glo, 72 h); details: SK-GT2; sDSSmod = DSSmod (patient cells) - DSSmod (normal cells)
Summary of the method: as §2

OE33 cells [9] = test: as above; details: OE33; sDSSmod = DSSmod (patient cells) - DSSmod (normal cells)
Summary of the method: as §2

OE19 cells = test: as above; details: sDSSmod = DSSmod (patient cells) - DSSmod (normal cells)
Summary of the method: as §2

Flo-1 cells [10] = test: as above; details: Flo-1; sDSSmod = DSSmod (patient cells) - DSSmod (normal cells)
Text: OE33, OE19 and SKGT2 human esophageal adenocarcinoma cell lines were obtained from the European Collection of Cell Culture ([…]). Flo1, EAC42 and EAC47 cells were established in the Capobianco Laboratory. EAC42 and EAC47 human esophageal adenocarcinoma cell lines are derived from patients undergoing surgery at the Miller School of Medicine, University of Miami. The Capobianco laboratory obtained written informed consent from all patients and approval from the Institutional Research Ethics Committee.
Drug sensitivity testing (DST) was performed as described previously. […] Individual drugs were dissolved in 100% DMSO and tested in duplicates starting at a maximal test concentration of 10μM then over a 20,000-fold concentration range to generate dose response curves. Wells with assay buffer containing DMSO served as negative controls. 1000 exponentially growing cells were seeded per well in 384-well micro-titer plates and incubated in the presence of compounds in a humidified environment at 37°C and 5% CO2. After 72 hours of treatment, cell viability was assessed by measuring ATP levels via bioluminescence (CellTiter-Glo, Promega) according to manufactures recommendations. Interpretation of curve parameters was performed according to the modified drug sensitivity scoring (DSSmod) function developed by Swords et al. As a final step, the selective DSSmod (sDSSmod) for each drug in each patient screen is calculated according to the formula sDSSmod = DSSmod (patient cells)—DSSmod (normal cells). Given in this way, the sDSSmod incorporated information on each drug’s potency, efficacy, effect range and therapeutic index, making it possible to prioritize compounds over multiple parameters using a single numerical metric. In addition, this methodology allows us to rank compounds by cancer-selective efficacy for each individual patient. […] All calculations and scoring routines are implemented in MatLab and additional curve fitting and statistical analyses are performed in GraphPad prism.

## Nc1nc(=O)n([C@H]2C[C@H](O)[C@@H](CO)O2)cc1F [2'-Deoxy-5-fluorocytidine]
OE33 cells [1]
  cytotoxicity at 6 µM: 65.2%
EAC47 cells [2]
  cytotoxicity at 6 µM: 86.8%

## Nc1ncnc2c1c(I)cn2[C@@H]1O[C@H](CO)[C@@H](O)[C@H]1O [5-Iodotubercidin]
Flo-1 cells [3]
  % cell killing /control: 50.40%

## CC(C)[C@H](C(=O)Nc1ccc(C(=O)NO)cc1)c1ccccc1 [(S)-HDAC-42]
OE33 cells [1]
  cytotoxicity at 6 µM: 89.3%
EAC47 cells [2]
  cytotoxicity at 6 µM: 76.5%
Flo-1 cells [3]
  cytotoxicity at 6 µM: 84.6%

## CC[C@@H]1C(=O)N(C)c2cnc(Nc3ccc(C(=O)NC4CCN(C)CC4)cc3OC)nc2N1C1CCCC1 [BI-2536]
OE33 cells [1]
  cytotoxicity at 6 µM: 77.6%
EAC47 cells [2]
  cytotoxicity at 6 µM: 39.5%
Flo-1 cells [3]
  cytotoxicity at 6 µM: 95.9%

## O=C(/C=C/c1cccc(C(=O)NO)c1)NO [CBHA]
EAC47 cells [2]
  % cell killing /control: 20.30%

## Cc1sc2c(c1C)C(c1ccc(Cl)cc1)=N[C@@H](CC(N)=O)c1nnc(C)n1-2 [CPI203]
EAC47 cells [2]
  sensitivity in words: sensitivity
  % cell killing /control: 43.29%
Flo-1 cells [3]
  % cell killing /control: 48.79%

## COc1ccc(-c2nc(N3CCOCC3)c3sc(CN(C)c4ncc(C(=O)NO)cn4)cc3n2)cn1 [CUDC-907]
OE33 cells [1]
  cytotoxicity at 6 µM: 99.4%
EAC47 cells [2]
  cytotoxicity at 6 µM: 115%
Flo-1 cells [3]
  cytotoxicity at 6 µM: 99.7%

## N.N.[Cl][Pt][Cl] [Cisplatin]
[4]
  treatment response in words: minimal treatment effects
  EC50: 0.01 µM
  DSS: 0
EAC47 cells [5]; EAC47, concentration of 10μM
  reduction of cell survival in words: did not result in a reduction of cell survival
EAC42 cells [6]; EAC42, concentration of 10μM
  reduction of cell survival in words: did not result in a reduction of cell survival
EAC47 cells [7]; EAC47, 10μM cisplatin for 24h
  clonogenic survival: 95.75%
EAC47 cells [7]; EAC47, 50μM cisplatin for 24h
  clonogenic survival: 28.64%
EAC42 cells [8]; EAC42, 10μM cisplatin for 24h
  clonogenic survival: 89.19%
EAC42 cells [8]; EAC42, 50μM cisplatin for 24h
  clonogenic survival: 50.1%

## CCN(CC)C(=S)SSC(=S)N(CC)CC [Disulfiram]
[4]
  DSS: 0
EAC42 cells [6]; EAC42
  sDSSmod: 7.112
SK-GT2 cells
  sDSSmod: 10.36
EAC47 cells [2]
  cytotoxicity at 6 µM: 33.9%

## Nc1ccccc1NC(=O)c1ccc(CNC(=O)OCc2cccnc2)cc1 [Entinostat (MS-275), Entinostat]
OE33 cells [1]
  cytotoxicity at 6 µM: 76%
EAC47 cells [2]
  cytotoxicity at 6 µM: 36.6%
Flo-1 cells [3]
  cytotoxicity at 6 µM: 43.3%

## Nc1ccn([C@@H]2O[C@H](CO)[C@@H](O)C2(F)F)c(=O)n1 [Gemcitabine]
[4]
  EC50: 0.32 µM
  DSS: 17.72
OE33 cells [9]
  sDSSmod: 9.443
EAC47 cells [5]; EAC47, sDSSmod = DSSmod (patient cells) - DSSmod (normal cells)
  sDSSmod: 8.407
EAC47 cells [5]; Homo sapiens, EAC47, assay not stated explicitly, taken as DST screen, read-out: calculated EC50
  EC50: 0.0107 µM
OE19 cells
  sDSSmod: -16.819
EAC42 cells [6]; EAC42
  sDSSmod: 14.66
EAC42 cells [6]; Homo sapiens, EAC42, assay not stated explicitly, taken as DST screen, read-out: calculated EC50
  EC50: 0.0066 µM
EAC47 cells [7]; EAC47, 10nM gemcitabine for 2h, colonies after 14 days
  clonogenic survival: 63.28%
EAC42 cells [8]; EAC42, 10nM gemcitabine for 2h, colonies after 14 days
  clonogenic survival: 59.26%
Flo-1 cells [10]
  sDSSmod: -5

## CCN(CC)Cc1ccc2cc(COC(=O)Nc3ccc(C(=O)NO)cc3)ccc2c1 [Givinostat (ITF2357), Givinostat]
OE33 cells [1]
  cytotoxicity at 6 µM: 87.7%
EAC47 cells [2]
  cytotoxicity at 6 µM: 96.8%
Flo-1 cells [3]
  cytotoxicity at 6 µM: 90.9%

## Cn1cc(CNCC2CCN(c3ncc(C(=O)NO)cn3)CC2)c2ccccc21 [JNJ-26481585]
OE33 cells [1]
  % cell killing /control: 99.54%
EAC47 cells [2]
  % cell killing /control: 113.73%
Flo-1 cells [3]
  % cell killing /control: 98.39%

## O=C(/C=C/c1ccc(CN(CCO)CCc2c[nH]c3ccccc23)cc1)NO [LAQ824]
OE33 cells [1]
  cytotoxicity at 6 µM: 99%
EAC47 cells [2]
  cytotoxicity at 6 µM: 108%
Flo-1 cells [3]
  cytotoxicity at 6 µM: 96.8%

## Cc1cc(C)cc(C(=O)NOCCCCCC(=O)NO)c1 [LMK 235]
OE33 cells [1]
  % cell killing /control: 80.31%
EAC47 cells [2]
  % cell killing /control: 62.72%

## CN(C)c1ccc(C(=O)NCCCCCCC(=O)NO)cc1 [M-344]
OE33 cells [1]
  % cell killing /control: 68.75%
Flo-1 cells [3]
  % cell killing /control: 56.82%

## O=Nc1ccc(O)c2ncccc12 [NSC-3852]
OE33 cells [1]
  % cell killing /control: 42.71%

## CN(C)Cc1c(C(=O)NCCOc2ccc(C(=O)NO)cc2)oc2ccccc12 [PCI-24781 (Abexinostat), Abexinostat]
OE33 cells [1]
  cytotoxicity at 6 µM: 46%

## O=C(/C=C/c1cccc(S(=O)(=O)Nc2ccccc2)c1)NO [PXD101]
OE33 cells [1]
  cytotoxicity at 6 µM: 92.3%
Flo-1 cells [3]
  cytotoxicity at 6 µM: 77.6%

## O=C(CCCCCCC(=O)Nc1ccccc1)NO [SAHA]
Flo-1 cells [3]
  % cell killing /control: 46.32%

## CCCCc1nc2cc(/C=C/C(=O)NO)ccc2n1CCN(CC)CC [SB 939]
OE33 cells [1]
  cytotoxicity at 6 µM: 98.9%
Flo-1 cells [3]
  cytotoxicity at 6 µM: 78.8%

## O=C(CCCCCN1C(=O)c2cccc3cccc(c23)C1=O)NO [Scriptaid]
Flo-1 cells [3]
  cytotoxicity at 6 µM: 32.5%

## O=C(CCCCC[C@@H]1NC(=O)[C@H]2CCCCN2C(=O)[C@H](Cc2ccccc2)NC(=O)[C@H](Cc2ccccc2)NC1=O)C1CO1 (some centres unmarked) [Trapoxin A] (cyclo(FF[dPip][Aoe(9ξ)]))
OE33 cells [1]
  cytotoxicity at 6 µM: 98.9%
EAC47 cells [2]
  cytotoxicity at 6 µM: 102%
Flo-1 cells [3]
  cytotoxicity at 6 µM: 96.4%

## CC(/C=C/C(=O)NO)=C\[C@@H](C)C(=O)c1ccc(N(C)C)cc1 [Trichostatin A]
OE33 cells [1]
  % cell killing /control: 98.02%
EAC47 cells [2]
  % cell killing /control: 109.49%
Flo-1 cells [3]
  % cell killing /control: 96.32%

## CC1(C)CCC2=C(O1)c1ccccc1C(=O)C2=O [β-Lapachone]
Flo-1 cells [3]
  cytotoxicity at 6 µM: 40.9%
